Assay results published in patent US20260364079A1 (Principia Biopharma Inc., priority 2022, published 2026).

Tests used:
human B cell = experiment: in vitro human B cell activation; format: cell-based
[1] = system: collagen-induced arthritis; experiment: rat collagen-induced arthritis model; format: in vivo
251 kinases = experiment: broad kinase enzyme inhibition panel; format: biochemical; conditions: 1 μM; of 251 kinases
other TEC family members = experiment: preclinical assays of binding persistence, other TEC family members; conditions: over time
rat Arthus reaction = experiment: rat Arthus reaction; format: in vivo
Pemphigus foliaceus = experiment: treatment of dogs with newly diagnosed, naturally occurring Pemphigus foliaceus; format: in vivo

CC(C)(C=C(C#N)C(=O)N1CCC[C@@H](n2nc(-c3ccc(Oc4ccccc4)cc3F)c3c(N)ncnc32)C1)N1CCN(C2COC2)CC1 (mixture of isomers) [rilzabrutinib, (R)-2-[3-[4-amino-3-(2-fluoro-4-phenoxy-phenyl)pyrazolo[3,4-d]pyrimidin-1-yl]piperidine-1-carbonyl]-4-methyl-4-[4-(oxetan-3-yl)piperazin-1-yl]pent-2-enenitrile]
human B cell activation (human B cell): profoundly inhibits human B cell activation | disease reversal [1]: full disease reversal | number of kinases with >90% inhibition (251 kinases): 6 kinases | persistence of binding to other TEC family members (other TEC family members): decayed rapidly over time | effect on rat Arthus reaction (rat Arthus reaction): blockade of the rat Arthus reaction | cases with disease safely controlled without the need for corticosteroid (Pemphigus foliaceus): 4 of 4
